Earlier results on one compound are cited in patent US12237054B2, “Model for high-throughput screening of endocrine disruptor and method for screening same” (Nanjing University, priority 2018, dated 2025).

Each structure is given as a SMILES string.

The subject of this series is HEK293T. Conditions: standardized Activity value, data from public databases (ToxCast/Tox21, ChEMBL).

On to `CC(C)C(=O)Nc1ccc([N+](=O)[O-])c(C(F)(F)F)c1` [Flutamide], for which the cytotoxicity experimental value was 4.4.
